Reference: ChEMBL document CHEMBL1149951, “Antileukaemic properties of 12-hydroxydaphnetoxin derivatives” (Bioorg Med Chem Lett, 1994)
The source made the active and inactive calls. No cut-off for these calls is given here.

Columns and labels:
Mus musculus [1] = experiment: In vivo activity against mice infected with murine p388 lymphocytic leukemia cells at a ip dose of 0.05 mg/kg; type: functional; conditions: route intraperitoneal
Mus musculus [2] = experiment: In vivo activity against mice infected with murine p388 lymphocytic leukemia cells at a ip dose of 0.1 mg/kg; type: functional; conditions: route intraperitoneal
Mus musculus [3] = experiment: In vivo activity against mice infected with murine p388 lymphocytic leukemia cells at a ip dose of 0.2 mg/kg; type: functional; conditions: route intraperitoneal
[4] = In vivo activity was against mice infected with murine p388 lymphocytic leukemia cells at a ip dose of 0.8 mg/kg; Toxic; type: toxicity, organism-based; design: dose 0.8 mg/kg, route intraperitoneal; conditions: mouse
[5] = In vivo activity against mice infected with murine p388 lymphocytic leukemia cells at a ip dose of 0.4 mg/kg; Toxic; type: toxicity, organism-based; design: dose 0.4 mg/kg, route intraperitoneal; conditions: mouse
Mus musculus [6] = experiment: In vivo activity against mice infected with murine p388 lymphocytic leukemia cells at a ip dose of 0.4 mg/kg; type: functional; conditions: route intraperitoneal
[7] = In vivo activity against mice infected with murine p388 lymphocytic leukemia cells at a ip dose of 0.8 mg/kg; Toxic; type: toxicity, organism-based; design: dose 0.8 mg/kg, route intraperitoneal; conditions: mouse
Mus musculus [8] = experiment: In vivo activity against mice infected with murine p388 lymphocytic leukemia cells at a ip dose of 0.8 mg/kg; type: functional; conditions: route intraperitoneal
[9] = In vivo activity against mice infected with mice infected with murine p388 lymphocytic leukemia cells at a ip dose of 0.4 mg/kg; Toxic; type: toxicity, organism-based; design: dose 0.4 mg/kg, route intraperitoneal; conditions: mouse
Mus musculus [10] = experiment: In vivo activity against mice infected with murine p388 lymphocytic leukemia cells at a ip dosage range of 0.05-1.6 mg/kg; Inactive; type: functional, organism-based
Mus musculus [11] = experiment: In vivo activity against mice infected with murine p388 lymphocytic leukemia cells at a ip dose of 0.2 mg/kg; Toxic; type: functional, organism-based; design: dose 0.2 mg/kg

For `C=C(C)C12OC3(c4ccccc4)OC1[C@@H]1[C@@H]4O[C@]4(CO)[C@@H](O)[C@]4(O)C(=O)C=C[C@@]4(C)C1(O3)[C@H](C)[C@H]2OC(=O)/C=C/C=C/c1ccccc1` (stereo partly drawn), the ILS at 0.05 mg/kg (Mus musculus [1]) was 33%, the ILS at 0.1 mg/kg (Mus musculus [2]) was 33% and the ILS at 0.2 mg/kg (Mus musculus [3]) was 67%. For the same compound, the ILS [4] was “Toxic” and the ILS [5] was “Toxic”.
Compound `CC(C)C12OC3(c4ccccc4)OC1[C@@H]1[C@@H]4O[C@]4(CO)[C@@H](O)[C@]4(O)C(=O)C=C[C@@]4(C)C1(O3)[C@H](C)[C@H]2OC(=O)CCCCc1ccccc1` (stereo partly drawn) has an ILS at 0.05 mg/kg (Mus musculus [1]) of less than 20%, an ILS at 0.1 mg/kg (Mus musculus [2]) of less than 20% and an ILS at 0.2 mg/kg (Mus musculus [3]) of 43%. The ILS at 0.4 mg/kg (Mus musculus [6]) was 43% and the ILS [7] was “Toxic”.
`CC(C)C12OC3(c4ccccc4)OC1[C@@H]1[C@@H]4O[C@]4(CO)[C@@H](O)[C@]4(O)C(=O)C=C[C@@]4(C)C1(O3)[C@H](C)[C@H]2OC(=O)c1ccccc1` (stereo partly drawn) showed an ILS at 0.05 mg/kg (Mus musculus [1]) of less than 20%, an ILS at 0.1 mg/kg (Mus musculus [2]) of 30% and an ILS at 0.2 mg/kg (Mus musculus [3]) of 42%. The ILS at 0.4 mg/kg (Mus musculus [6]) was 48% and the ILS [7] was “Toxic”.
`C=C(C)C12OC3(c4ccccc4)OC1[C@@H]1[C@@H]4O[C@]4(CO)[C@@H](O)[C@]4(O)C(=O)C=C[C@@]4(C)C1(O3)[C@H](C)[C@H]2OC(=O)/C=C/C=C/CCCCC` (stereo partly drawn) showed an ILS at 0.05 mg/kg (Mus musculus [1]) of 33%, an ILS at 0.1 mg/kg (Mus musculus [2]) of 33% and an ILS at 0.2 mg/kg (Mus musculus [3]) of 42%. The ILS [5] was “Toxic” and the ILS [7] was “Toxic”.
Compound `C=C(C)C12OC3(c4ccccc4)OC1[C@@H]1[C@@H]4O[C@]4(CO)[C@@H](O)[C@]4(O)C(=O)C=C[C@@]4(C)C1(O3)[C@H](C)[C@H]2OC(=O)CCCCCCCCC` (stereo partly drawn) has an ILS at 0.05 mg/kg (Mus musculus [1]) of less than 20%, an ILS at 0.1 mg/kg (Mus musculus [2]) of less than 20% and an ILS at 0.2 mg/kg (Mus musculus [3]) of less than 20%. It also gave an ILS at 0.4 mg/kg (Mus musculus [6]) of 42% and an ILS at 0.8 mg/kg (Mus musculus [8]) of 43%.
`C=C(C)C12OC3(c4ccccc4)OC1[C@@H]1[C@@H]4O[C@]4(CO)[C@@H](O)[C@]4(O)C(=O)C=C[C@@]4(C)C1(O3)[C@H](C)[C@H]2OC(=O)/C=C/c1ccccc1` (stereo partly drawn) showed an ILS at 0.05 mg/kg (Mus musculus [1]) of less than 20%, an ILS at 0.1 mg/kg (Mus musculus [2]) of 60% and an ILS at 0.2 mg/kg (Mus musculus [3]) of 73%. For the same compound, the ILS [9] was “Toxic” and the ILS [7] was “Toxic”.
Work on `CC(C)C12OC3(c4ccccc4)OC1[C@@H]1[C@@H]4O[C@]4(CO)[C@@H](O)[C@]4(O)C(=O)CC[C@@]4(C)C1(O3)[C@H](C)[C@H]2OC(=O)CCc1ccccc1` (stereo partly drawn) yielded an ILS at 0.05 mg/kg (Mus musculus [1]) of less than 20%, an ILS at 0.1 mg/kg (Mus musculus [2]) of less than 20% and an ILS at 0.2 mg/kg (Mus musculus [3]) of less than 20%. The ILS at 0.4 mg/kg (Mus musculus [6]) was 25% and the ILS at 0.8 mg/kg (Mus musculus [8]) was 30%.
Work on `CCCCCCCCCC(=O)O[C@@H]1[C@@H](C)C23OC4(c5ccccc5)OC([C@@H]2[C@@H]2O[C@]2(CO)[C@@H](O)[C@]2(O)C(=O)C=C[C@@]32C)C1(C(C)C)O4` (stereo partly drawn) yielded an ILS at 0.05 mg/kg (Mus musculus [1]) of less than 20%, an ILS at 0.1 mg/kg (Mus musculus [2]) of less than 20% and an ILS at 0.2 mg/kg (Mus musculus [3]) of less than 20%. The ILS at 0.4 mg/kg (Mus musculus [6]) was 30% and the ILS at 0.8 mg/kg (Mus musculus [8]) was 27%.
In the case of `CC(C)C12OC3(c4ccccc4)OC1[C@@H]1[C@@H]4O[C@]4(CO)[C@@H](O)[C@]4(O)C(=O)CC[C@@]4(C)C1(O3)[C@H](C)[C@H]2OC(=O)CCCCCCCCc1ccccc1` (stereo partly drawn), the ILS at 0.05 mg/kg (Mus musculus [1]) is reported as less than 20%, the ILS at 0.1 mg/kg (Mus musculus [2]) is reported as less than 20% and the ILS at 0.2 mg/kg (Mus musculus [3]) is reported as less than 20%. For the same compound, the ILS at 0.4 mg/kg (Mus musculus [6]) was 25% and the ILS at 0.8 mg/kg (Mus musculus [8]) was 25%.
With `C=C(C)C12OC3(c4ccccc4)OC1[C@@H]1[C@@H]4O[C@]4(CO)[C@@H](O)[C@]4(O)C(=O)C=C[C@@]4(C)C1(O3)[C@H](C)[C@H]2O` (stereo partly drawn) the ILS (Mus musculus [10]) was “inactive”.
Compound `C=C(C)C12OC3(c4ccccc4)OC1[C@@H]1[C@@H]4O[C@]4(CO)[C@@H](O)[C@]4(O)C(=O)C=C[C@@]4(C)C1(O3)[C@H](C)[C@H]2OC(=O)c1ccccc1` (stereo partly drawn) has an ILS at 0.05 mg/kg (Mus musculus [1]) of less than 20%, an ILS at 0.1 mg/kg (Mus musculus [2]) of less than 20% and an ILS at 0.2 mg/kg (Mus musculus [3]) of 32%. The ILS at 0.4 mg/kg (Mus musculus [6]) was 40% and the ILS [7] was “Toxic”.
`CC(C)C12OC3(c4ccccc4)OC1[C@@H]1[C@@H]4O[C@]4(CO)[C@@H](O)[C@]4(O)C(=O)C=C[C@@]4(C)C1(O3)[C@H](C)[C@H]2OC(=O)CCc1ccccc1` (stereo partly drawn) gave an ILS at 0.05 mg/kg (Mus musculus [1]) of less than 20%, an ILS at 0.1 mg/kg (Mus musculus [2]) of less than 20% and an ILS at 0.2 mg/kg (Mus musculus [3]) of 38%. The ILS at 0.4 mg/kg (Mus musculus [6]) was 40% and the ILS [7] was “Toxic”.
For `C=C(C)C12OC3(c4ccccc4)OC1[C@@H]1[C@@H]4O[C@@]45COC(C)(C)O[C@H]5[C@]4(O)C(=O)C=C[C@@]4(C)C1(O3)[C@H](C)[C@H]2O` (stereo partly drawn), the ILS (Mus musculus [10]) was “inactive”.
With `C=C(C)C12OC3(c4ccccc4)OC1[C@@H]1[C@@H]4O[C@@]45COC(C)(C)O[C@H]5[C@]4(O)C(=O)C=C[C@@]4(C)C1(O3)[C@H](C)[C@H]2OC(=O)/C=C/c1ccccc1` (stereo partly drawn) the ILS (Mus musculus [10]) was “inactive”.
For `C=C(C)C12OC3(c4ccccc4)OC1[C@@H]1[C@@H]4O[C@@]45COC(C)(C)O[C@H]5[C@]4(O)C(=O)C=C[C@@]4(C)C1(O3)[C@H](C)[C@H]2OC(=O)/C=C/C=C/C=C/CCC` (stereo partly drawn), the ILS (Mus musculus [10]) was “inactive”.
For `C=C(C)C12OC3(c4ccccc4)OC1[C@@H]1[C@@H]4O[C@@]45COC(C)(C)O[C@H]5[C@]4(O)C(=O)C=C[C@@]4(C)C1(O3)[C@H](C)[C@H]2OC(=O)CCCCCCCCC` (stereo partly drawn), the ILS (Mus musculus [10]) was “inactive”.
With `C=C(C)C12OC3(c4ccccc4)OC1[C@@H]1[C@@H]4O[C@]4(CO)[C@@H](O)[C@]4(O)C(=O)C(C)=C[C@H]4C1(O3)[C@H](C)[C@H]2OC(=O)/C=C/C=C/C=C/CCC` (stereo partly drawn) [GNIDITRIN] the ILS at 0.05 mg/kg (Mus musculus [1]) was 44%, the ILS at 0.1 mg/kg (Mus musculus [2]) was 68% and the ILS (Mus musculus [11]) was “Toxic”. The ILS [5] was “Toxic” and the ILS [7] was “Toxic”.
With `C=C(C)C12OC3(c4ccccc4)OC1[C@@H]1[C@@H]4O[C@@]45COC(C)(C)O[C@H]5[C@]4(O)C(=O)C=C[C@@]4(C)C1(O3)[C@H](C)[C@H]2OC(=O)c1ccccc1` (stereo partly drawn) the ILS (Mus musculus [10]) was “inactive”.
With `C=C(C)C12OC3(c4ccccc4)OC1[C@@H]1[C@@H]4O[C@@]45COC(C)(C)O[C@H]5[C@]4(O)C(=O)C=C[C@@]4(C)C1(O3)[C@H](C)[C@H]2OC(=O)/C=C/C=C/c1ccccc1` (stereo partly drawn) the ILS (Mus musculus [10]) was “inactive”.
With `C=C(C)C12OC3(c4ccccc4)OC1[C@@H]1[C@@H]4O[C@@]45COC(C)(C)O[C@H]5[C@]4(O)C(=O)C=C[C@@]4(C)C1(O3)[C@H](C)[C@H]2OC(=O)/C=C/C=C/CCCCC` (stereo partly drawn) the ILS (Mus musculus [10]) was “inactive”.
Compound `CC(C)C12OC3(c4ccccc4)OC1[C@@H]1[C@@H]4O[C@]4(CO)[C@@H](O)[C@]4(O)C(=O)CC[C@@]4(C)C1(O3)[C@H](C)[C@H]2OC(=O)CCCCc1ccccc1` (stereo partly drawn) has an ILS at 0.05 mg/kg (Mus musculus [1]) of less than 20%, an ILS at 0.1 mg/kg (Mus musculus [2]) of less than 20% and an ILS at 0.2 mg/kg (Mus musculus [3]) of less than 20%. It also gave an ILS at 0.4 mg/kg (Mus musculus [6]) of 29% and an ILS at 0.8 mg/kg (Mus musculus [8]) of 27%.
